Test results from patent US12226393B2, “Neuroprotective compounds for amyotrophic lateral sclerosis” (THE JOHNS HOPKINS UNIVERSITY, priority 2019, dated 2025).
“Also recorded” adds a separate entry of the source. Like-named read-outs stand apart in the source and are kept apart here.

What was measured:
Cx43 HC = Cx43 HC (Homo sapiens, UniProt P17302); settings: cited from earlier work
[1] = system: control hiPSC-A/-MN co-cultures; experiment: Multielectrode array (MEA) recording of control hiPSC-A/-MN co-cultures; assay type: cell-based, human; settings: for hiPSC-Neuron spike activity: co-cultured 1 week
Source text: (§1) Multi-electrode array culture and recordings: Multi-electrode array (MEA) plates (MultiChannel Systems, 60MEA200/30iR-Ti-gr,) with 60 electrodes, including 59 active and 1 reference, and a MEA2100 (MultiChannel Systems) platform were used for the recording of neuronal activity in hiPSC-A/-MN co-cultures as we have previously described^50. Briefly, hiPSC-A from healthy subjects and ALS patients and hiPSC-MN from a single control line were serially co-cultured at densities of 100,000 cells/plate and 500,000 cells/plate, respectively. We analyzed the following electrophysiological parameters: spike rate, burst rate, and percentage of spiking and bursting electrodes (on the overall 59 recording electrodes). The recording of the baseline activity of MEA plates was performed every 3 days over 1-minute period for 2 weeks after initial plating. For pharmacological assays, we performed 5 minutes recordings to capture slower electrophysiological effects of HC blockers 36: baseline MEA activity for 1 minute, activity for 1 minute after 100 μl medium exchange with drug vehicle, and activity for 3 minutes after the exchange of 100 μl of medium containing the compound of interest and the drug vehicle. For analysis purposes, we considered only the electrodes with spike rate >0. Spiking and bursting activity is expressed as the mean of individual MEA plates.

[2] = system: rodent SOD1^G93A astrocyte-induced toxicity; experiment: ALS astrocyte-induced MN toxicity, rodent model of ALS; assay type: cell-based
gap junction channels = settings: cited from earlier work
[3] = system: FALS and SALS hiPSC-A/MN co-culture; experiment: hiPSC-astrocyte / hiPSC-motor neuron direct co-culture, neuron survival by immunostaining; assay type: cell-based, human; settings: for neuroprotection of control hiPSC-MN in co-culture with ALS hiPSC-A: 3 days
Procedure: (§2) Human iPSC-astrocyte and hiPSC-motor neuron co-culture: Human iPSC-A form healthy subjects and ALS patients were cultured for 86 DIV and then plated in 24 well plates on glass cover-slips at a density of 20,000 cells/well. Four days later, hiPSC-MN from control samples, cultured for 60 DIV prior to use, were plated on the top of astrocytes at a density of 50,000 cells/well. This was considered day 1 of co-culture. Co-cultures were maintained in motor neuronal medium enriched with 1% FBS for a total of 14 days before fixing for immunocytochemistry. Co-culture medium was changed every third day with half medium exchange. For pharmacological assays on Cx43 HC, we used GAP19 (Tocris, 53533) at a concentration of 340 μM^21,50 and tonabersat (SB-220453) at concentrations of 1 μM, 10 μM and 100 μM^7,8 (Millipore Sigma, SML1354).

[4] = biological target: T1, connexin 43 (Cx43) gap junctions (Homo sapiens, UniProt P17302); settings: cited from earlier work
T1 construct: host or cells: astrocyte cancer cell co-cultures
T1 sequence (P17302 2-382 limits assumed, species assumed): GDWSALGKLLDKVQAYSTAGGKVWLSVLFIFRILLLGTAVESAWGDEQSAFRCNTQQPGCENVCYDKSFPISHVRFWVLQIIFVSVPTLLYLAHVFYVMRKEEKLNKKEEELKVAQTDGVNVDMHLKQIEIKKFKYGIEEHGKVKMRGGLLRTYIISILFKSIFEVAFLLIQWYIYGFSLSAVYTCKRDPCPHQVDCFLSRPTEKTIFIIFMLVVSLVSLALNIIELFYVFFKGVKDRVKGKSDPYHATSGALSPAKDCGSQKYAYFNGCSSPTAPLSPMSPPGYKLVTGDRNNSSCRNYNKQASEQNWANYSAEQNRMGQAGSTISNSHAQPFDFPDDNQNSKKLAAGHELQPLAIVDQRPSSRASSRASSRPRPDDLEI

[5] = cited from earlier work; for tolerability / safety: humans, phase II clinical trials
[6] = in vivo; cited from earlier work
[7] = in vivo, cited from earlier work
[8] = system: transwell co-culture of FALS and SALS hiPSC-A with hiPSC-MN; experiment: hiPSC-astrocyte / hiPSC-motor neuron transwell co-culture, neuron survival by immunostaining; assay type: cell-based, human
Procedure: Human iPSC-astrocyte and hiPSC-motor neuron co-culture in a transwell system: Human iPSC-MN from control samples were cultured for 56 DIV and then plated in 12 well plates on glass coverslips at a density of 250,000 cells/well. […] Four days later, the inserts with 90 DIV astrocytes were placed on the top of 12-well plates with 60 DIV motor neurons at the bottom. This was considered day 1 of “transwell” co-cultures. Half medium exchanges were performed from both the top and the bottom compartments. Transwell co-culture were otherwise maintained as conventional co-cultures and neurons on glass coverslips were fixed for immunocytochemistry after 14 days.

control hiPSC-MN = experiment: Survival of control hiPSC-MN alone or co-cultured with control hiPSC-A; assay type: cell-based, human; settings: several concentrations; hiPSC-MN alone or in co-culture with control hiPSC-A
Procedure: Human iPSC-motor neuron culture: Briefly, NPC differentiated with the aforementioned spinal cord patterning protocol were cultured for up to 60 DIV with “neuronal differentiating medium”^58,59. To prevent astrocyte overproliferation, neuronal cultures were treated once with 0.02 μM cytosine arabinoside (Ara-C) (Millipore Sigma) for 48 h. While the majority of these cells are Tuj1+/ChAT+, consistent with a spinal motor neuronal phenotype, a smaller subset of neurons (Tuj1+/ChAT−) is also present and consists mainly of GABAergic interneurons^58.
as §2

[9] = in vivo studies; cited from earlier work
hiPSC-MN alone = experiment: MEA recording of hiPSC-MN alone in culture; assay type: cell-based, human; settings: 10 μM
brain metastases = settings: xenograft and immunocompetent models; cited from earlier work
[10] = system: ALS hiPSC-A / control hiPSC-MN co-cultures; experiment: MEA recording of ALS hiPSC-A co-cultured with control hiPSC-MN; assay type: cell-based, human; settings: for ALS astrocyte-mediated hyperexcitability (neuronal spiking and bursting activity): 10 μM, within 5 minutes
Source text: as §1

Chain of Cx43 HC (P17302 2-382 limits assumed): as the sequence (P17302 2-382 limits assumed, species assumed) above

Question: For “KQIEIKKFK [Gap19, nonapeptide derived from the cytoplasmic loop of Cx43]”, which “inhibition of astroglial Cx43 hemichannels” value (Cx43 HC) is on record?
Answer: The value was “inhibits astroglial Cx43 hemichannels in a dose-dependent manner”.

Question: And the neuronal firing ([1]; hiPSC-Astro/Neuron co-culture, 1 minute after application)?
Answer: Its neuronal firing is “reduced neuronal firing”.

Question: What about the “neuroprotection against ALS astrocyte-induced MN toxicity” value [2] of the same compound?
Answer: The value was “can be neuroprotective”.

Question: And the “effect on gap junction channels” value (gap junction channels)?
Answer: The value was “without affecting gap junction channels”.

Question: With `CC(=O)c1ccc2c(c1)[C@H](NC(=O)c1ccc(F)c(Cl)c1)[C@H](O)C(C)(C)O2` [tonabersat, N-[(3S,4S)-6-acetyl-3-hydroxy-2,2-dimethyl-3,4-dihydro-2H-1-benzopyran-4-yl]-3-chloro-4-fluorobenzamide] as the compound, how does the “concentrations that specifically block Cx43 HC” value (Cx43 HC; low concentrations) read?
Answer: Its value is 1 to 10 µM.

Question: And the “rescue of ChAT MNs” value ([3]; 1 μM, direct co-culture, 14 days)?
Answer: Its value is “rescues ChAT MNs”.

Question: What about the “neuroprotection of control hiPSC-MN in co-culture with ALS hiPSC-A” value ([3]; 10 μM, early (day 5 to day 8 of co-culture)) of the same compound?
Answer: The value was “neuroprotection of control hiPSC-MN; also recorded: Significant neuroprotection”.

Question: What about the “neuroprotection of control hiPSC-MN in co-culture with ALS hiPSC-A” value ([3]; 10 μM, late (day 11 to day 14 of co-culture)) of the same compound?
Answer: Its value is “This protection did not occur; also recorded: Significant neuroprotection was appreciated after early but not late exposure”.

Question: And the “rescue of ChAT MNs” value ([3]; 10 μM, direct co-culture, 14 days)?
Answer: The value was “rescues ChAT MNs”.

Question: What about the “neuroprotection of hiPSC-MN” value ([3]; 100 μM, direct co-culture, 14 days) of the same compound?
Answer: Its value is “not neuroprotective”.

Question: And the “protection of non-MN populations (ChAT− and Isl1− neurons)” value ([3]; direct co-culture with FALS and SALS hiPSC-A)?
Answer: Its value is “protective to non-MN populations; also recorded: can be rescued with tonabersat”.

Question: And the “neuroprotection of hiPSC-MN (ChAT, Isl-1) from ALS astrocyte-mediated death” value ([3]; direct co-culture, 1 μM, 10 μM and 100 μM, 14 day incubation)?
Answer: The value was “can protect MNs from ALS astrocyte-induced excitotoxicity; also recorded: protects hiPSC-MN from ALS astrocyte-mediated death in a dose-dependent manner; also recorded: dose-dependent neuroprotection”.

Question: What about the “release of IFNα and TNF” value ([4]; astrocyte cancer cell co-cultures) of the same compound?
Answer: Its value is “inhibited”.

Question: And the “dye transfer from astrocytes to cancer cells” value [4]?
Answer: The value was “inhibited dye transfer from astrocytes to cancer cells”.

Question: What about the tolerability / safety [5] of the same compound?
Answer: Its tolerability / safety is “well tolerated and safe”.

Question: And the tolerability / safety ([5]; listed as Tonabersat)?
Answer: The tolerability / safety was “excellent safety profile”.

Question: What about the “effect on attacks of migraine aura” value ([5]; study by Hauge and colleagues) of the same compound?
Answer: Its value is “preventive effect”.

Question: What about the “efficacy on non-aura attacks” value ([5]; study by Hauge and colleagues) of the same compound?
Answer: Its value is “no efficacy”.

Question: And the “neurogenic extravasation of plasma protein in the meninges” value [6]?
Answer: The value was “reduce neurogenic extravasation of plasma protein in the meninges”.

Question: What about the cortical spreading depression [7] of the same compound?
Answer: Its cortical spreading depression is “inhibitory effects on cortical spreading depression”.

Question: And the cortical spreading depression ([7]; listed as Tonabersat)?
Answer: The cortical spreading depression was “antagonize cortical spreading depression”.

Question: And the “neuroprotection of hiPSC-MN (ChAT+, Isl1+)” value ([8]; transwell co-culture, 14 days)?
Answer: The value was “neuroprotective effect of tonabersat was also seen; also recorded: confirms dose-dependent neuroprotection”.

Question: What about the “rescue of non-motor neuron cell death” value ([8]; transwell culture with FALS and SALS hiPSC-A) of the same compound?
Answer: Its value is “can be rescued with tonabersat”.

Question: And the “hiPSC-MN survival (ChAT+ and Isl1+)” value (control hiPSC-MN)?
Answer: The value was “did not have any effect on hiPSC-MN survival; also recorded: no effect on ChAT+ and Isl1+ control hiPSC-MN survival”.

Question: What about the seizures [9] of the same compound?
Answer: The seizures was “inhibitory effects”.

Question: What about the neuronal electrophysiological activity (hiPSC-MN alone) of the same compound?
Answer: The neuronal electrophysiological activity was “did not observe any change in neuronal electrophysiological activity; also recorded: does not result in an alteration of electrophysiological activity”.

Question: What about the brain metastases (brain metastases) of the same compound?
Answer: The brain metastases was “inhibited brain metastases”.

Question: And the “neuronal spiking and bursting activity” value ([1]; 1 μM, 5 minutes after application, compared with 10 μM)?
Answer: The value was “less effective”.

Question: And the hiPSC-Neuron spike activity ([1]; 10 μM, 1 minute after application)?
Answer: Its hiPSC-Neuron spike activity is “reduction of hiPSC-Neuron spike activity”.

Question: What about the “neuronal spiking and bursting activity” value ([1]; 10 μM, within 5 minutes of application) of the same compound?
Answer: The value was “significantly reduced neuronal spiking and bursting activity”.

Question: And the hiPSC-Neuron spike activity ([1]; 100 μM, 1 minute after application)?
Answer: Its hiPSC-Neuron spike activity is “reduction of hiPSC-Neuron spike activity”.

Question: What about the “hiPSC-Neuron spike rate, burst rate, number of electrodes firing and bursting” value ([1]; hiPSC-Astro/Neuron co-culture) of the same compound?
Answer: The value was “reduced hiPSC-Neuron spike rate, burst rate, number of electrodes firing and bursting”.

Question: And the hiPSC-Neuron firing ([1]; hiPSC-Astro/Neuron co-culture, 1 and 5 minutes after application)?
Answer: Its hiPSC-Neuron firing is “reduced hiPSC-Neuron firing”.

Question: And the “levels of spiking and bursting activity after treatment versus untreated control co-cultures” value ([10]; 10 μM acute treatment, day 6 of co-culture)?
Answer: The value was “not significantly different”.

Question: What about the “ALS astrocyte-mediated hyperexcitability (neuronal spiking and bursting activity)” value ([10]; day 6 of co-culture) of the same compound?
Answer: The value was “significantly reduced”.

Question: And the “ALS astrocyte-mediated hyperexcitability (neuronal spiking and bursting activity)” value ([10]; day 6 of co-culture, listed as Tonabersat)?
Answer: Its value is “significant inhibition”.

Question: What about the “concentration necessary to reduce ALS hiPSC-astrocyte mediated neuron spike activity” value ([10]; MEA, co-cultured 1 week, 1 minute after application) of the same compound?
Answer: The value was 100 µM.
